Assay [1] has as its system CMPD-I-sensitive, K^+ channel binding site. Nature of the assay: [^3 H]CMPD-I ligand binding to intact RINm5F cells. Set-up: species or system rat. The note with it: for inhibition of [^3 H]CMPD-I binding: result in words. The method, then: The cells were fed three times a week and passed weekly with 0.25% trypsin/0.02% EDTA (JRH Biosciences, Lenexa, Kans.). For intact cell binding experiments, RINm5F cells were plated onto 60 mm polystyrene petri dishes (Corning) at 5×10^6 cells/dish and grown for 3 days without a change of media. Alternatively, cells were seeded 1×10^6 cells/dish and grown for 7 days with the last feeding two days prior to use. Final cell density was 10-20 ×10^6 cells/dish. […] Intact cell binding was performed with the cells attached to the dishes. Binding was terminated by three successive 3 ml washes of cold (4° C.) buffer. Cells were removed from the dish in 1.6 ml of 0.5 N NaOH, briefly sonicated and radioactivity was quantitated with a liquid scintillation counter using 10 ml cocktail (Ultima Gold, Packard). Statistical analysis to determine KD and BMax was accomplished using nonlinear regression (Enzfitter, Elsevier-Biosoft, Cambridge, UK). IC50 values were determined using a sigmoidal fit of mean percent inhibition versus log of concentration. Petri dishes were removed from the incubator, media was aspirated and the cells were washed (x2) with 3 ml oxygenated (5%CO2 /95%O2) Hanks Buffer (37° C.). Cells were allowed to equilibrate in buffer at least 10 minutes. […] Dishes were incubated at 37° C., in an atmosphere of 5% CO2 /95% for 90 minutes. Bound radioligand was separated from free by aspirating the buffer and washing the cells rapidly (x3) with 3 ml ice cold (4° C.) Hanks Buffer. Cells were then removed and solubilized with the addition of 1.6 ml 0.5N NaOH. Dishes were mounted on an orbit shaker (Lab Line) and rotated at 100-125 rpm for 20-45 minutes until the cells would detach from the plates. […] The solutions were vortexed and an aliquot (10 μ`) from each tube was removed for total protein determination. The remainder (1.59 ml) was transferred to a 20 ml vial with 10 ml Ultima Gold (Packard) scintillation cocktail and mixed until the aqueous phase cleared. Each sample was counted for at least one minute by a liquid scintillation system set for counting tritium. Total protein content of each dish was determined by the method of Bradford with bovine serum albumin used as the standard. […] Percent Inhibition of specific binding by test compounds was determined by calculating: 100-[(Cpm (with Drug)-Nonspecific cpm.div.Specific cpm)×100](Basic program) Free and Bound radioligand was calculated (Basic program) and a saturation curve based on a nonlinear regression fit of the data was used to determine a KD (nM) and Bmax (fmoles/mg total cellular protein) of binding (Enzfitter, Id.). Mean percent inhibition of binding at the concentrations tested for each drug was fit to a sigmoidal function. IC50 values were calculated from the plot of the fraction of maximal inhibition versus Log of concentration (Enzfitter, Id.).

Assay [2] relates to rat aorta. As to the kind of experiment: Aortic relaxation of rat aortic rings precontracted with 20 mM KCl. To be noted: aortae depolarized with 20 mM KCl. On the procedure: Male Long-Evans Hooded rats (200-400 g) were sacrificed by acute decapitation. Thoracic aortae were rapidly removed and placed in an oxygenated (100% O2) physiological saline solution (PSS) (pH 7.4) of the following composition in mM: NaCl, 130; KCl, 5.9; MgCl2, 1.2; CaCl2, 0.8; HEPES, 22 and glucose, 11.1. The aortae were trimmed of fat, cut into rings 3 mm in length, mounted in an organ bath containing 10 ml of oxygenated PSS at 37° C. and stretched to a resting tension of 2.0 g. The aortae were depolarized with 20 mM KCl and after contractile response had stabilized, vasodilators were added. The vasorelaxation produced by the drugs was reversed by glyburide (a potent antagonist of ATP-dependent K^+ channels, as described above). Prior to the aortic preparation, the instrument to measure changes in aortic tension was set up and each channel was statically calibrated for linearity using Class S metric weights from 1 to 5 grams, the range consistent with changes observed in this study. This instrument translates isometric changes in tension over time to an electrical signal expressed as a tracing that can be quantified by peak height. […] After a 90 minute equilibration the resting tension was readjusted to the baseline level. […] Percent relaxation of putative K^+ channel agonists was calculated as follows: 100-[(Peak Height (mm) after Drug.div.Initial Peak Height (mm) after 20 mM K^+)×100] […]

Where “and” joins values, the source holds several entries; their conditions need not be identical. Equal values may be shown once. Where a name gives a salt, the structure may show the parent alone. Read-outs that look alike come from different tables or passages of the source.

For `[3H]c1cc([3H])c(NC(=C[N+](=O)[O-])NC(C)C(C)(C)C)c(OCC)c1` (single isomer, unassigned) [[^3 H]CMPD-I], the Kd was 0.7 nM in assay [1] (Scatchard analysis, single binding site (FIG. 3), read-out: apparent KD); 2 nM in assay [1] (determined by saturation analysis, read-out: KD); 2.3 nM and 2.4 nM in assay [1] (two additional experiments, read-out: KD).
In the case of `CC[N+](CC)(CC)CC` [TEA], in assay [1], the “inhibition of [^3 H]CMPD-I binding” value is listed as “inhibit binding”.
As to `COc1ccc(Cl)cc1C(=O)NCCc1ccc(S(=O)(=O)NC(=O)NC2CCCCC2)cc1` [glyburide], the “reversal of vasorelaxation produced by the drugs” value in assay [2] is recorded as “reversed”. Also, the “inhibition of [^3 H]CMPD-I binding” value in assay [1] is listed as “inhibit binding”.
With `Cc1cnc(C(=O)NCCc2ccc(S(=O)(=O)NC(=O)NC3CCCCC3)cc2)cn1` [glypizide], in assay [1], the “inhibition of [^3 H]CMPD-I binding” value is reported as “inhibit binding”.
On the same count and under the same terms, under `Nc1cc(N2CCCCC2)nc(N)[n+]1OS(=O)(=O)[O-]` [minoxidil sulfate] stands “inhibits binding”; under `CC(N/C(=N\C#N)Nc1ccncc1)C(C)(C)C` (centres unmarked) [pinacidil], “inhibited”; under `C=C[C@H]1C[N@@]2CC[C@H]1C[C@@H]2[C@@H](O)c1ccnc2ccc(OC)cc12` [quinidine], “inhibit binding”.
On the same count and under the same terms, the value for `C=C[C@H]1C[N@@]2CC[C@H]1C[C@H]2[C@H](O)c1ccnc2ccc(OC)cc12` [quinine] was “inhibit binding”.

Source of the values: patent US5328830A, “Potassium channel modulators” (Miles Inc., priority 1992, dated 1994).
